Reference: patent US9273043B2, “TRPV1 antagonists including dihydroxy substituent and uses thereof” (Purdue Pharma L.P., priority 2011, dated 2016)

Test system: neuropathic mechanical hyperalgesia after partial sciatic nerve ligation
Assay: Seltzer model (partial sciatic nerve ligation) of neuropathic pain, paw withdrawal threshold
Assay type: in vivo, rat
Conditions: for % Reversal [mean ± SEM]: rat; for % reversal of neuropathic hyperalgesia / % reversal of neuropathic hyperalgesia, maximum analgesic efficacy: rat Seltzer model
Protocol: In the Seltzer model, the partial sciatic nerve ligation model of neuropathic pain was used to produce neuropathic hyperalgesia in rats (Seltzer et al., “A Novel Behavioral Model of Neuropathic Pain Disorders Produced in Rats by Partial Sciatic Nerve Injury,” Pain 43:205-218 (1990)). Partial ligation of the left sciatic nerve was performed under isoflurane/O2 inhalation anaesthesia. Following induction of anesthesia, the left thigh of the male, 6-7 week old Jcl:SD rat was shaved. The sciatic nerve was exposed at high thigh level through a small incision and was carefully cleared of surrounding connective tissues at a site near the trocanther just distal to the point at which the posterior biceps semitendinosus nerve branches off of the common sciatic nerve. A 7-0 silk suture was inserted into the nerve with a ⅜ curved, reversed-cutting mini-needle and tightly ligated so that the dorsal ⅓ to ½ of the nerve thickness was held within the ligature. The wound was closed with a single muscle suture (4-0 nylon (Vicryl)) and vetbond tissue glue. The wound area was then dusted with antibiotic powder. Sham treatment involved an identical surgical procedure except that the sciatic nerve was not manipulated or ligated.
Following surgery, animals were weighed and placed on a warm pad until they recovered from anesthesia. Animals were then returned to their home cages until behavioral testing began. The animal was assessed for response to noxious mechanical stimuli by determining PWT for the rear paw of the animal, as described below, prior to surgery (baseline), then immediately prior to and 1, 3, 5, 7, and 24 hours after oral drug-in-vehicle administration (for day 1). Thus, the 24 hour time point was the start of the next day when drug-in-vehicle was again orally administered (24 hours after the prior administration). On days 2 and 3, PWT response was determined 1, 3, and 24 hours thereafter. Percentage reversal of neuropathic hyperalgesia at each of the specified times after administration was defined as: […]
Additionally, 10 mg/kg of pregabalin (Kemprotec, Ltd., Middlesbrough, UK), an anticonvulsant accepted for relief of particular neuropathic pain, in vehicle and the vehicle alone (0.5% weight/volume methylcellulose (400cP, Wako Pure Chemical Industries, Ltd.)/aqueous solution) were orally administered as controls. […] Ten rats that underwent partial ligation of the left sciatic nerve were used for each treatment group. Dunnett's test was conducted for the % reversal; values with p<0.05 were considered to be statistically significant.
Additionally, as a control the rats underwent sham surgery in which an identical surgical procedure was followed with regard to the right thigh but the sciatic nerve was neither manipulated nor ligated.
Response to Mechanical Stimuli as an Assessment of Mechanical Hyperalgesia: The paw pressure assay was used to assess mechanical hyperalgesia. […] Biochem. and Behavior 31:451-455 (1988). The maximum weight that could be applied to the hind paw was set at 250 g and the end point was taken as complete withdrawal of the paw. PWT was determined once for each rat at each time point and either only the affected (ipsilateral) paw was tested, or both the ipsilateral and contralateral (non-injured) paw were tested.

`CC1CN(c2ncc(C(O)CO)cc2F)CCN1C(=O)Nc1nc2cc(F)ccc2s1.O=C(O)C=CC(=O)O` (centres unmarked) was tested. Which “% Reversal [mean ± SEM]” value (1 mg/kg oral once daily, 1 hours (day 2) after administration) did it give?
The value was 12.04 ± 4.92 %.

What about the “% Reversal [mean ± SEM]” value (1 mg/kg oral once daily, 1 hours (day 3) after administration) of the same compound?
Its value is 6.44 ± 6.50%.

And the “% Reversal [mean ± SEM]” value (1 mg/kg oral once daily, 3 hours (day 2) after administration)?
The value was 12.84 ± 4.12 %.

And the “% Reversal [mean ± SEM]” value (1 mg/kg oral once daily, 3 hours (day 3) after administration)?
The value was 9.58 ± 5.23%.

What about the “% Reversal [mean ± SEM]” value (1 mg/kg oral once daily, 24 hours (0 hrs day 2) after administration) of the same compound?
Its value is 0.71 ± 2.46%.

What about the “% Reversal [mean ± SEM]” value (1 mg/kg oral once daily, 24 hours (0 hrs day 3) after administration) of the same compound?
The value was 4.89 ± 2.68%.

And the “% Reversal [mean ± SEM]” value (1 mg/kg oral once daily, 24 hours (0 hrs day 4) after administration)?
Its value is 0.51 ± 3.15%.

What about the “% Reversal [mean ± SEM]” value (1 mg/kg oral, 1 hours (day 1) after administration) of the same compound?
The value was 14.60 ± 4.26%.

What about the “% Reversal [mean ± SEM]” value (1 mg/kg oral, 3 hours (day 1) after administration) of the same compound?
The value was 17.04 ± 4.91 %.

And the “% Reversal [mean ± SEM]” value (1 mg/kg oral, 5 hours (day 1) after administration)?
Its value is 11.39 ± 3.13 %.

What about the “% Reversal [mean ± SEM]” value (1 mg/kg oral, 7 hours (day 1) after administration) of the same compound?
Its value is 3.04 ± 4.49%.

What about the “% Reversal [mean ± SEM]” value (3 mg/kg oral once daily, 1 hours (day 2) after administration) of the same compound?
The value was 12.57 ± 2.38 %.

And the “% Reversal [mean ± SEM]” value (3 mg/kg oral once daily, 1 hours (day 3) after administration)?
The value was 11.80 ± 3.29%.

And the “% Reversal [mean ± SEM]” value (3 mg/kg oral once daily, 3 hours (day 2) after administration)?
Its value is 17.14 ± 5.38 %.

And the “% Reversal [mean ± SEM]” value (3 mg/kg oral once daily, 3 hours (day 3) after administration)?
The value was 17.34 ± 3.91 %.

And the “% Reversal [mean ± SEM]” value (3 mg/kg oral once daily, 24 hours (0 hrs day 2) after administration)?
Its value is −5.34 ± 4.20%.

And the “% Reversal [mean ± SEM]” value (3 mg/kg oral once daily, 24 hours (0 hrs day 3) after administration)?
The value was −3.85 ± 4.61%.

And the “% Reversal [mean ± SEM]” value (3 mg/kg oral once daily, 24 hours (0 hrs day 4) after administration)?
The value was −1.95 ± 2.97%.

What about the “% Reversal [mean ± SEM]” value (3 mg/kg oral, 1 hours (day 1) after administration) of the same compound?
The value was 15.69 ± 4.62%.

And the “% Reversal [mean ± SEM]” value (3 mg/kg oral, 3 hours (day 1) after administration)?
Its value is 18.39 ± 1.67 %.

What about the “% Reversal [mean ± SEM]” value (3 mg/kg oral, 5 hours (day 1) after administration) of the same compound?
Its value is 12.22 ± 1.89 %.

What about the “% Reversal [mean ± SEM]” value (3 mg/kg oral, 7 hours (day 1) after administration) of the same compound?
The value was 7.65 ± 2.79%.

What about the “% Reversal [mean ± SEM]” value (10 mg/kg oral once daily, 1 hours (day 2) after administration) of the same compound?
The value was 27.41 ± 4.56 %.

What about the “% Reversal [mean ± SEM]” value (10 mg/kg oral once daily, 1 hours (day 3) after administration) of the same compound?
The value was 23.36 ± 4.69 %.

And the “% Reversal [mean ± SEM]” value (10 mg/kg oral once daily, 3 hours (day 2) after administration)?
Its value is 29.12 ± 5.44 %.

And the “% Reversal [mean ± SEM]” value (10 mg/kg oral once daily, 3 hours (day 3) after administration)?
The value was 28.91 ± 5.72 %.

What about the “% Reversal [mean ± SEM]” value (10 mg/kg oral once daily, 24 hours (0 hrs day 2) after administration) of the same compound?
The value was 3.38 ± 3.97%.

And the “% Reversal [mean ± SEM]” value (10 mg/kg oral once daily, 24 hours (0 hrs day 3) after administration)?
The value was 2.87 ± 4.62%.

What about the “% Reversal [mean ± SEM]” value (10 mg/kg oral once daily, 24 hours (0 hrs day 4) after administration) of the same compound?
Its value is 11.09 ± 3.45%.

And the “% Reversal [mean ± SEM]” value (10 mg/kg oral, 1 hours (day 1) after administration)?
Its value is 32.51 ± 5.00 %.

What about the “% Reversal [mean ± SEM]” value (10 mg/kg oral, 3 hours (day 1) after administration) of the same compound?
Its value is 34.17 ± 5.60 %.

And the “% Reversal [mean ± SEM]” value (10 mg/kg oral, 5 hours (day 1) after administration)?
Its value is 19.59 ± 3.04 %.

And the “% Reversal [mean ± SEM]” value (10 mg/kg oral, 7 hours (day 1) after administration)?
The value was 17.06 ± 2.95 %.

And the “% reversal of neuropathic hyperalgesia” value (oral 1 mg/kg once daily, day 2, 3 hour time point)?
The value was 12.84%.

And the “% reversal of neuropathic hyperalgesia, maximum analgesic efficacy” value (oral 1 mg/kg, single (day 1) administration)?
The value was 17.04%.

What about the “% reversal of neuropathic hyperalgesia” value (oral 3 mg/kg once daily, day 2, 3 hour time point) of the same compound?
Its value is 17.14%.

And the “% reversal of neuropathic hyperalgesia” value (oral 3 mg/kg once daily, day 3, 3 hour time point)?
Its value is 17.34%.

What about the “% reversal of neuropathic hyperalgesia, maximum analgesic efficacy” value (oral 3 mg/kg, 3 h after day 1 administration) of the same compound?
Its value is 18.39%.

And the “% reversal of neuropathic hyperalgesia” value (oral 10 mg/kg once daily, day 2, 3 hour time point)?
Its value is 29.12%.

And the “% reversal of neuropathic hyperalgesia” value (oral 10 mg/kg once daily, day 3, 3 hour time point)?
Its value is 28.91%.

And the “% reversal of neuropathic hyperalgesia” value (oral 10 mg/kg, 3 h after day 1 administration (maximum))?
Its value is 34.17%.
